Source: doi:10.1101/2020.12.13.873687v1 (biorxiv, 2020)

Target: human amylin (islet amyloid polypeptide, IAPP) (Homo sapiens, UniProt P10997)
Test: thioflavin T fluorescence amyloid aggregation inhibition
Format: biochemical

Sequence of human amylin (islet amyloid polypeptide, IAPP) (P10997 34-70): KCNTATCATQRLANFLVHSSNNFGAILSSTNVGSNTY

IC50 [µM] | SMILES
~1 | O=C(O[C@@H]1Cc2c(O)cc(O)cc2O[C@@H]1c1cc(O)c(O)c(O)c1)c1cc(O)c(O)c(O)c1 [Epigallocatechin gallate, reference compound]
7.2 | O=C(O)/C=C/c1ccc(O)c(O)c1 [caffeic acid]
0.2 to 0.3 | O=C(/C=C/c1ccc(O)c(O)c1)O[C@H](Cc1ccc(O)c(O)c1)C(=O)O [rosmarinic acid]
90 | O=C(O)[C@H](O)Cc1ccc(O)c(O)c1 [salvianic acid A]
